Experimental data: PMC2751816, “Functional, Non-Clonal IgM^a-Restricted B Cell Receptor Interactions with the HIV-1 Envelope gp41 Membrane Proximal External Region” (PLoS ONE, 2009)
“Also recorded” adds a separate entry of the source.

Key:
[1] = test system: naïve splenic C57BL/6 B cells; assay: Flow cytometry: APC-labeled tetramer staining of C57BL/6 splenic B cells; type: cell-based, mouse (C57BL/6)
Experimental: (§1) N-biotinylated, linker/spacer-containing peptides used to make tetramers are detailed in Table S4 and Fig. 7A. Peptides were synthesized and purified using reverse-phase HPLC (Primm Biotechnology). To produce tetramerized forms of each peptides, 200 µM peptide and 6 µM APC-labeled streptavadin (SA) were combined at equal volumes, and mixtures were incubated at 4°C for 4 h. Unbound peptide was removed from peptide-APC complexes by centrifugal filtration using an Amicon Centriprep YM30 column (Millipore Corporation). Purified tetramer preparations were determined using the Micro BSA protein assay kit (Pierce Biotechnology).
FACS staining of single cell suspensions (≥2×10^6) was conducted using pre-mixed combinations of fluorochrome-labeled Abs and APC-conjugated B cell tetramers at empirically-determined optimal concentrations. All Abs were from BD unless otherwise stated. Primary antibodies used were: PerCP anti-B220, FITC anti-IgD, FITC, PE or PE-Cy7 anti-IgM, PE anti-CD5, FITC anti-CD11b, PE-Cy7 anti-CD19, FITC anti-CD21, PE-Cy7 anti-CD23 (eBiosciences), and PE-Cy7 anti-CD93 (eBiosciences). Other reagents included biotinylated Abs against dump channel markers: Thy1 (Abcam), F4/80 (Abcam), CD11c, Gr-1, TER-119, and NK-1.1, secondary staining SA-Texas Red conjugate; v-amine live/dead violet dye (Molecular Probes), and Fc block (anti-CD16/32).
Staining was conducted at 4°C in several sequential steps in FACS staining buffer (1X PBS with 2% FCS, 0.1% NaN3), washing twice between steps. Cells were first incubated with v-amine live/dead dye for 15 min, then stained with APC-labeled tetramers for 30 min (and in some experiments, cold tetramer was incubated at 10 fold molar excess for 1 h, prior to staining with APC-labeled tetramers). Cells were then stained with Fc block, followed by incubation with combinations of primary Abs, and secondary staining with SA-Texas Red, each for 30 min. Data (≥2.5×10^5 events/sample) were acquired using an LSRII flow cytometer and Cell Quest software (BD Immunocytometry systems). FACS Analysis was performed using FlowJo software (Tree Star). […]

[2] = test system: splenic B cells, C57BL/6 congenic (IgH^a); assay: Flow cytometry: tetramer staining of splenic B cells from C57BL/6 congenic (IgH^a) mice; type: cell-based, mouse (B6Igh^a); conditions: C57BL/6 mice homozygous for Igh^a; Fig. 5
Experimental: as §1
(§2) Female C57BL/6, BALB/c, B6Igh^a, and CB17 (BALBc Igh^b) inbred mouse strains (8–12 wks of age) were purchased from Charles River Laboratories. All mice were housed in the Duke University Animal Facility in a pathogen-free environment with 12 h light/dark cycles at 20–25°C under AALAC guidelines and in accordance with all Institutional Animal Care and Use Committee and Duke University Institutional Biosafety Committee-approved animal protocols. […]
(§3) FACS staining of single cell suspensions (≥2×10^6) was conducted using pre-mixed combinations of fluorochrome-labeled Abs and APC-conjugated B cell tetramers at empirically-determined optimal concentrations. […]

[3] = test system: splenic B cells, BALB/c congenic (CB17) (IgH^b); assay: Flow cytometry: tetramer staining of splenic B cells from BALB/c congenic CB17 (IgH^b) mice; type: cell-based, mouse (CB17); conditions: BALB/c mice homozygous for Igh^b; Fig. 5
Experimental: as §1, §2, §3

[4] = test system: surface Ig on BALB/c splenic B cells; assay: Microscopy of BCR cap formation (co-capping); type: cell-based, mouse (BALB/c); conditions: anti-Ig stimulation, Fig. 4F
Experimental: Purified naïve splenic B cells were incubated on ice for 30 min with Alexa 488-labeled wheat germ agglutinin (Invitrogen) and 10 µg/ml R-PE-labeled goat anti-mouse IgM+IgG (H+L) F(ab)2 and APC-labeled gp41 MPER. After extensive washing, cells were stimulated for indicated times. Images were acquired with a Nikon TE2000-E2 inverted microscope employing a 40X magnification lens from a CoolSNAPPHQ2 monochrome camera.

[5] = test system: expressed IgM^+ VH repertoire of splenic BALB/c B cells; assay: VH family usage in gp41 MPER tetramer-sorted IgM^+ B cells (5' RACE); parameters: species or system mouse (BALB/c); conditions: compared to total IgM^+ BALB/c B cells; Fisher Exact test; two sorts; Fig. 6B
From the text: For sorting of gp41 MPER tetramer-binding B cells, single cell splenic suspensions were obtained from 5–10 naïve BALB/c 8 wk females, pooled, and purified by negative depletion with CD43 MACS beads (Miltenyi Biotechnology). The resulting B cell enriched fraction was stained as described in the flow cytometry methods section and sorted into B220^+ CD19^+ gp41 MPER^+ fractions using a BDFACS Aria. Sorting gates for the gp41 MPER^+ fractions were set to include all events greater than baseline staining without tetramer. Purity of sorted populations was verified by a 1000-event post-sort step.
For 5′ RACE analysis, gp41 MPER^+ fractions (or purified, unsorted splenic B cells) were spun down and washed, immediately after sorting. DNAse-free RNA was extracted and concentrated using RNEasy Mini and Micro kits, respectively (Qiagen) and quantitated using a NanoDrop ND-1000 spectrophotometer (Fisher). cDNA was synthesized by oligo-dT priming using SuperScript III (Invitrogen) and IgM-specific 5′ RACE products were amplified with the First Choice RLM-RACE PCR kit (Ambion), using mouse HC̃-specific primers in combination with 5′ RACE primers, according to the manufacturer's instructions. PCR products were cloned into pGEM-T Easy vectors (Promega), transformed in GC5 competent cells (CLP), and transformant DNA was isolated, sequenced and analyzed in Ig Blast.

[6] = test system: phosphorylated Erk in BALB/c splenic B cells; assay: Intracellular FACS of phosphorylated Erk1/2; type: cell-based, mouse (BALB/c); conditions: naïve BALB/c splenocytes; gated on ligated B cells; Fig. 8B
Experimental: Splenocyte suspensions were incubated at 37°C for various times with either APC-labeled F(ab)'2 anti-IgM (Jackson ImmunoResearch) or APC-labeled gp41 MPER tetramers. Stimulations were stopped by the addition of PhosFlow Lyse/Fix buffer (BD) and incubation for 10 min at 37°C. Cells were stained with B220-FITC prior to permeabilization with PhosFlow Perm Buffer III (BD). Permeabilized cells were stained with a PE-labeled Ab to Erk1 and Erk2 (BD), according to the manufacturer's instructions. Cells were fixed with 2% paraformaldehyde, and all data were collected and analyzed as done for standard flow cytometry.

**Q.** With “QQEKNEQELLELDKWASLWN [gp41 MPER tetramer, (residues 659–678 of the HIV-1 envelope)]” as the sequence, how does the “MFI binding pattern (in words)” value ([1]; C57BL/6 B cells, Fig. 1A, 1C) read?
**A.** Its value is “gp41 MPER-reactive C57BL/6 B cells scattered further out across the APC channel”.

**Q.** And the “gp41 MPER reactivity among B cell subsets (in words)” value ([1]; C57BL/6 MZ and B1a B cells, Table S2)?
**A.** The value was “did not reveal increased levels of MPER binding by MZ and B1a B cells”.

**Q.** What about the “percentage of tetramer-reactive B cells” value ([1]; total splenic B cells (CD19^+), naïve C57BL/6, APC tetramer 100 ng/10^6 splenocytes, above background without tetramer, Fig. 1A representative histogram) of the same sequence?
**A.** Its value is 0.1–0.3%.

**Q.** And the “gp41 MPER binding in congenic mice (in words)” value [2]?
**A.** The value was “exhibited gp41 MPER binding identical to BALB/c animals”.

**Q.** What about the “gp41 MPER binding in congenic mice (in words)” value [3] of the same sequence?
**A.** The value was “lost gp41 MPER binding”.

**Q.** What about the “co-capping with surface Ig (in words)” value [4] of the same sequence?
**A.** The value was “co-capped with surface Ig in BALB/c splenic B cells”.

**Q.** And the “VH family usage in gp41 MPER-reactive B cells (in words)” value [5]?
**A.** Its value is “most VH families were utilized at statistically comparable levels in gp41 MPER-reactive B cells, with the exception of two overutilized VH families: 36–60 and 7183”.

**Q.** What about the “Erk phosphorylation (in words)” value [6] of the same sequence?
**A.** The value was “detectable, but dampened induction of phosphorylated Erk; also recorded: peak gp41 MPER-induced Erk phosphorylation persisted at 30 min; also recorded: the entire population of gp41 MPER-gated B cells showed modest Erk activation”.
